Like-named read-outs stand apart in the source and are kept apart here.

What is called EC50 is the concentration at which the effect is half-maximal. As usually defined, the IC50 is the midpoint of a concentration-inhibition curve.

Common to all, as to assay type: cell-based
Assay [1] deals with T47D cells expressing mutant PI3Ka (H1047R). Put plainly: In vitro cell proliferation (CellTiter-Glo, 72 hours), T47D cells. Conditions: inhibition of proliferation, read-out: Avg T-47D EC50. The protocol:
(§1) In Vitro Cell Proliferation: Determination of EC50 Values for Inhibition of Proliferation in T47D Cells Expressing Mutant PI3Ka (H1047R) Mutation and SKBR3 Cells Express WT PI3Ka.
(§2) T47D or SKBR3 cells were trypsinized, resuspended in culture media and seeded onto assay ready plates. T47D culture media consisted of RPMI, 10% FBS and Insulin (0.2 units/mL). SKBR3 culture media consisted of McCoys 5a and 10% FBS. Cells were seeded at a density of 1,500 cells/well and dispensed in 50 uL onto 384 well assay ready plates (Corning, 89089-790). Assay ready plates had previously been stamped with 10-point dilutions of compounds of interest, as well as controls. The Echo655 is used to stamp plates at 40 nL of compound or DMSO. Cells were grown for 72 hours at 37° Celsius and 5% CO2. After 72 hours, cells were equilibrated at room temperature for 15 minutes. 30 uL of CellTiter-Glo reagent is added to the plate, which is then shaken for 30 minutes at temperature at 300-500 rpm. Cells are then read on an Envision plate reader. The percentage of inhibition of proliferation was calculated using the following formula: % Inhibition=100×(LumD−LumSample)/(LumD−LumInh), where D is obtained from cells treated with 0.1% DMSO only; Inh is obtained from cells treated with 10 uM Alpelisib. The effective concentration achieving 50% inhibition of proliferation (EC50) is calculated by fitting the Curve using XWfit (v5.3.1.3), equation 201: Y=Bottom+(Top−Bottom)/(1+10^((Log EC50−X)*HillSlope)).

The subject of assay [2] is SKBR3 cells express WT PI3Ka. The assay is described as follows: In vitro cell proliferation (CellTiter-Glo, 72 hours), SKBR3 cells. Conditions: inhibition of proliferation. As for the experimental part: as §1, §2
In general terms: ATP-based viability assays read luminescence as a measure of living cells.

The test system of assay [3] is phosphorylation of AKT (pAKT) in T47D cells expressing mutant PI3Ka (H1047R). Put plainly: In vitro cell pAKT (Ser473) HTRF, T47D cells. The following applies: inhibition of pAKT, read-out: Avg T-47D IC50. The protocol:
(§3) In Vitro Cell pAKT: Determination of IC50 Values for Inhibition of Phosphorylation of AKT (pAKT) in T47D Cells Expressing Mutant PI3Ka (H1047R) Mutation and SKBR3 Cells Express WT PI3Ka.
(§4) T47D or SKBR3 cells were trypsinized, resuspended in culture media and seeded onto assay ready plates. T47D culture media consisted of RPMI, 10% FBS and Insulin (0.2 units/mL). SKBR3 culture media consisted of McCoy's 5a and 10% FBS. Cells were seeded at a density of 5000 cells/well and dispensed in 12.5 uL onto 384 well assay ready plates (Perkin Elmer, 6008238)). Assay ready plates had previously been stamped with 10-point dilutions of compounds of interest, as well as controls. The Echo655 is used to stamp plates at 12.5 nL of compound or DMSO. Cells were grown for 6 hour at 37° Celsius and 5% CO2. After 6 hour, 4 uL of Lysis buffer reagent was added to the plate, which was then centrifuged for 1 minute at 1000 rpm. Then the plate was incubated at room temperature for 30 minutes. After 30 minutes, 4 uL of antibody mix containing Eu Cryptate, d2 Cryptate, and detection buffer, was added to the plate. The plate was centrifuged for 1 minute at 1000 rpm and then incubated overnight at room temperature. The plate was read on an Envision plate reader using the HTRF protocol. The percentage of inhibition of AKT phosphorylation was calculated using the following formula: % Inhibition=100×(pAKTHC−pAKTSample)/(pAKTHC−pAKTLC)), where pAKTHC is obtained from cells treated with 0.1% DMSO only; pAKTLC is obtained from cells treated with 10 uM Alpelisib. The IC50 (concentration achieving 50% inhibition of pAKT) is calculated by fitting the Curve using XWfit (v5.3.1.3), equation 201: Y=Bottom+(Top−Bottom)/(1+10^((Log IC50−X)*HillSlope)).

Assay [4] has as its system phosphorylation of AKT (pAKT) in SKBR3 cells express WT PI3Ka. Put plainly: In vitro cell pAKT (Ser473) HTRF, SKBR3 cells. Conditions: inhibition of pAKT. As for the experimental part: as §3, §4
(In general: In TR-FRET formats the signal depends on donor and acceptor labels being close together.)

As to `Cc1cc(C(C)Nc2ccccc2C(=O)O)c2nc(SCc3ccc(Cl)c(OC(F)(F)F)c3)n(C)c(=O)c2c1` (single isomer, unassigned) [Example 32, 2-((1-(2-((4-chloro-3-(trifluoromethoxy)benzyl)thio)-3,6-dimethyl-4-oxo-3,4-dihydroquinazolin-8-yl)ethyl)amino)benzoic acid], the EC50 in assay [1] and in assay [2] was 2 to 15 µM throughout. The IC50 in assay [3] (6 hour) and in assay [4] (6 hour) was greater than 15 µM each time.

With `CC(Nc1ccc(F)cc1C(=O)O)c1cc(F)cc2c(=O)n(C)c(N3CCN(CC(F)(F)F)CC3)nc12` (single isomer, unassigned) [Example 33, 5-fluoro-2-((1-(6-fluoro-3-methyl-4-oxo-2-(4-(2,2,2-trifluoroethyl)piperazin-1-yl)-3,4-dihydroquinazolin-8-yl)ethyl)amino)benzoic acid], the EC50 was 0.001 to 0.5 µM in assay [1] and greater than 15 µM in assay [2] (Homo sapiens, SK-BR-3, 72 h). Besides, the 50% inhibitory concentration (IC50) is 0.001 to 1 µM in assay [3] (6 hour) and greater than 15 µM in assay [4] (6 hour).

With `CC(Nc1ccc(F)cc1C(=O)O)c1cc(F)cc2c(=O)n(C)c(N3CCN(CC(F)(F)F)CC3)nc12` (single isomer, unassigned) [Example 34, 5-fluoro-2-((1-(6-fluoro-3-methyl-4-oxo-2-(4-(2,2,2-trifluoroethyl)piperazin-1-yl)-3,4-dihydroquinazolin-8-yl)ethyl)amino)benzoic acid], the EC50 in assay [1] and in assay [2] was greater than 15 µM in each case. Moreover, the figures for the IC50 in assay [3] (6 hour) and in assay [4] (6 hour) were greater than 15 µM and 5 to 15 µM, respectively.

As to `CC(Nc1ccccc1C(=O)O)c1cc(F)cc2c(=O)n(C)c(N3CCN(CC(F)(F)F)CC3)nc12` (single isomer, unassigned) [Example 36, 2-((1-(6-fluoro-3-methyl-4-oxo-2-(4-(2,2,2-trifluoroethyl)piperazin-1-yl)-3,4-dihydroquinazolin-8-yl)ethyl)amino)benzoic acid], the EC50 in assay [1] and in assay [2] was greater than 15 µM throughout. Also, the IC50 in assay [3] (6 hour) and in assay [4] (6 hour) was greater than 15 µM throughout.

Turning to `CC(Nc1ccccc1C(=O)O)c1cc(C(F)(F)F)cc2c(=O)n(C)c(N3CCN(CC(F)(F)F)CC3)nc12` (single isomer, unassigned) [Example 37, 2-((1-(3-methyl-4-oxo-2-(4-(2,2,2-trifluoroethyl)piperazin-1-yl)-6-(trifluoromethyl)-3,4-dihydroquinazolin-8-yl)ethyl)amino)benzoic acid], the EC50 in assay [1] is 0.5 to 2 µM; in assay [2] (Homo sapiens, SK-BR-3, 72 h), 2 to 15 µM. For the same compound, the IC50 is 0.001 to 1 µM in assay [3] (6 hour) and greater than 15 µM in assay [4] (Homo sapiens, SK-BR-3, 6 h).

In the case of `CC(Nc1ccccc1C(=O)O)c1cc(C(F)(F)F)cc2c(=O)n(C)c(N3CCN(CC(F)(F)F)CC3)nc12` (single isomer, unassigned) [Example 38, 2-((1-(3-methyl-4-oxo-2-(4-(2,2,2-trifluoroethyl)piperazin-1-yl)-6-(trifluoromethyl)-3,4-dihydroquinazolin-8-yl)ethyl)amino)benzoic acid], the values for the EC50 in assay [1] and in assay [2] were greater than 15 µM and 2 to 15 µM, respectively. Moreover, the IC50 in assay [3] (6 hour) and in assay [4] (6 hour) was greater than 15 µM in each case.

For the compound `Cc1cc(C(C)Nc2ccccc2C(=O)O)c2nc(SCC(C)C)n(C)c(=O)c2c1` (single isomer, unassigned) [Example 39, 2-((1-(2-(isobutylthio)-3,6-dimethyl-4-oxo-3,4-dihydroquinazolin-8-yl)ethyl)amino)benzoic acid], the concentration giving a half-maximal response (EC50) in assay [1] is greater than 15 µM; in assay [2] (Homo sapiens, SK-BR-3, 72 h) it was greater than 15 µM. Besides, the IC50 is greater than 15 µM in assay [3] (6 hour) and greater than 15 µM in assay [4] (Homo sapiens, SK-BR-3, 6 h).

Take `Cc1cc(C(C)Nc2ccccc2C(=O)O)c2nc(SCC(C)C)n(C)c(=O)c2c1` (single isomer, unassigned) [Example 40, 2-((1-(2-(isobutylthio)-3,6-dimethyl-4-oxo-3,4-dihydroquinazolin-8-yl)ethyl)amino)benzoic acid]: the EC50 in assay [1] was 2 to 15 µM; in assay [2] it was greater than 15 µM. In addition, the IC50 in assay [3] (6 hour) is 1 to 5 µM; in assay [4] (6 hour), greater than 15 µM.

Consider `Cc1cc(C(C)Nc2ccccc2C(=O)O)c2nc(Nc3ccc(Cl)cc3)n(C)c(=O)c2c1` (single isomer, unassigned) [Example 41, 2-((1-(2-((4-chlorophenyl)amino)-3,6-dimethyl-4-oxo-3,4-dihydroquinazolin-8-yl)ethyl)amino)benzoic acid], for which the EC50 in assay [1] (Homo sapiens, T47D, 72 h) fell in the range of 2 to 15 µM; in assay [2] it was 2 to 15 µM. The IC50 in assay [3] (Homo sapiens, T47D, 6 h) was greater than 15 µM; in assay [4] (Homo sapiens, SK-BR-3, 6 h), greater than 15 µM.

Consider `Cc1cc(C(C)Nc2ccccc2C(=O)O)c2nc(Nc3ccc(Cl)cc3)n(C)c(=O)c2c1` (single isomer, unassigned) [Example 42, 2-((1-(2-((4-chlorophenyl)amino)-3,6-dimethyl-4-oxo-3,4-dihydroquinazolin-8-yl)ethyl)amino)benzoic acid], for which the figures for the EC50 in assay [1] and in assay [2] were 2 to 15 µM and greater than 15 µM, respectively. In addition, the IC50 in assay [3] (6 hour) and in assay [4] (6 hour) was greater than 15 µM in each case.

Take `Cc1cc(C(C)Nc2ccccc2C(=O)O)c2nc(NCc3ccc(Cl)cc3)n(C)c(=O)c2c1` (single isomer, unassigned) [Example 43, 2-((1-(2-((4-chlorobenzyl)amino)-3,6-dimethyl-4-oxo-3,4-dihydroquinazolin-8-yl)ethyl)amino)benzoic acid]: the EC50 is 2 to 15 µM in assay [1] (Homo sapiens, T47D, 72 h) and greater than 15 µM in assay [2] (Homo sapiens, SK-BR-3, 72 h). For the same compound, the IC50 is 5 to 15 µM in assay [3] (6 hour) and greater than 15 µM in assay [4] (Homo sapiens, SK-BR-3, 6 h).

As for `Cc1cc(C(C)Nc2ccccc2C(=O)O)c2nc(NCc3ccc(Cl)cc3)n(C)c(=O)c2c1` (single isomer, unassigned) [Example 44, 2-((1-(2-((4-chlorobenzyl)amino)-3,6-dimethyl-4-oxo-3,4-dihydroquinazolin-8-yl)ethyl)amino)benzoic acid], the values for the EC50 in assay [1] and in assay [2] were 2 to 15 µM and greater than 15 µM, respectively. In addition, the IC50 in assay [3] (6 hour) and in assay [4] (6 hour) was greater than 15 µM in each case.

Turning to `Cc1cc(C(C)Nc2ccccc2C(=O)O)c2nc(NC[C@H](C)c3ccccc3)n(C)c(=O)c2c1` (single isomer, unassigned) [Example 45], the EC50 in assay [1] was 2 to 15 µM; in assay [2], greater than 15 µM. In addition, the IC50 in assay [3] (6 hour) was greater than 15 µM; in assay [4] (Homo sapiens, SK-BR-3, 6 h), greater than 15 µM.

Take `Cc1cc(C(C)Nc2ccccc2C(=O)O)c2nc(NC[C@H](C)c3ccccc3)n(C)c(=O)c2c1` (single isomer, unassigned) [Example 46]: the results for the EC50 in assay [1] and in assay [2] were 0.5 to 2 µM and 2 to 15 µM, respectively. Moreover, the IC50 in assay [3] (6 hour) was 0.001 to 1 µM; in assay [4] (6 hour) it was greater than 15 µM.

For `Cc1cc(C(C)Nc2ccccc2C(=O)O)c2nc(NC[C@@H](C)c3ccccc3)n(C)c(=O)c2c1` (single isomer, unassigned) [Example 47], the EC50 in assay [1] is 0.5 to 2 µM; in assay [2] it was greater than 15 µM. The IC50 is 5 to 15 µM in assay [3] (6 hour) and greater than 15 µM in assay [4] (Homo sapiens, SK-BR-3, 6 h).

As to `Cc1cc(C(C)Nc2ccccc2C(=O)O)c2nc(NC[C@@H](C)c3ccccc3)n(C)c(=O)c2c1` (single isomer, unassigned) [Example 48], the EC50 in assay [1] and in assay [2] was 2 to 15 µM in each case. Further, the IC50 in assay [3] (6 hour) and in assay [4] (6 hour) was greater than 15 µM in each case.
